Test results: patent US12091393B2, “Small molecule vaccine adjuvant for enhancing or prolonging immune response” (The Regents of the University of California, priority 2018, dated 2024)
Entries after “also recorded” stand apart in the source; their conditions may differ. Read-outs that look alike come from different tables or passages of the source.

Experiments:
NF-κB [1] = assay: Measurement of NF-κB activation using THP1-Blue NF-κB cells (SEAP); format: cell-based; conditions: 20 h, two point normalized, compound 1 as 200%
JNK, P38 and Erk1/2 = assay: MAPK activation in THP-1 cells; format: cell-based; conditions: #42 alone
THP-1 cells [2] = assay: Co-stimulatory marker expression in THP-1 cells; format: cell-based
BMDCs [3] = assay: Cytotoxicity / cell viability of BMDCs; format: cell-based
NF-κB [4] = assay: cell-based NF-κB FRET assay
Source text: Site A was assigned the 4-substituent of thiazole ring, site B was the thiazole ring itself, site C was the central amide bond in the structure, site D was the benzene ring bearing 1,4-carboxyl and sulfamoyl group, site E was the sulfonamide functional group and site F was the amide substituent on the sulfamoyl group.

THP-1 cells [5] = assay: RNA seq in THP-1 cells; format: cell-based
BMDCs [6] = assay: Cytokine production in BMDCs; format: cell-based; conditions: for cytokine production (mIL-12, mIL-6, mTNFalpha) induced by Dectin1: with Dectin1 (FIGS. 4A-4C)
BMDCs [7] = assay: Co-stimulatory marker expression in BMDCs; format: cell-based; conditions: for Co-stimulatory markers: CD40 and CD86 induce by LPS or MPLA: BMDCs
BMDCs [8] = assay: Gene expression in BMDCs; format: cell-based
THP-1 cells [9] = assay: Cell viability assay (MTT); format: cell-based; conditions: compound 5 μM alone, 18 h, normalized to DMSO as 100%
How it was run: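 THP-1 cells in RPMI/10% FBS got compound at a final 5 μM (0.05% DMSO) for 18 h. MTT (0.5 mg/mL) was then added for 4 to 6 h, followed by SDS/HCl lysis overnight. Absorbance was read at 570 nm against 650 nm reference.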

NF-kB = NF-kB phosphorylation and nuclear localization in THP-1 cells (ICC and WB); format: cell-based

With `Cc1ccc(C)c(-c2csc(NC(=O)c3ccc(S(=O)(=O)N4CCCCC4)cc3)n2)c1` [Compound 1, N-(4-(2,5-dimethylphenyl)thiazol-2-yl)-4-(piperidin-1-ylsulfonyl)benzamide] the activity at 5 µM (NF-κB [1]; compound 5 μM + LPS, LPS (10 ng/mL) as 100%, read-out: NF-κB SEAP Compound + LPS % Activation) was 200%, the activity at 5 µM (NF-κB [1]; compound 5 μM alone, LPS or DMSO as 100%, read-out: NF-κB SEAP Compound alone % Activation) was 200% and the “MAPK activation: phosphorylation of JNK, P38 and Erk1/2” value (JNK, P38 and Erk1/2; listed as 42) was “induced”. The “MAPK activation: phosphorylation of JNK, P38 and Erk1/2” value (JNK, P38 and Erk1/2; listed as #42) was “phosphorylation of JNK, P38 and Erk1/2”, the “Co-stimulatory markers: CD40 and CD86 induce by LPS” value (THP-1 cells [2]) was “Enhancement of CD40 and CD86” and the Cytotoxicity (BMDCs [3]) was “Enhancement of cell viability”. The “NF-κB FRET Compound + LPS % Activation” value (NF-κB [4]; compound + LPS, two point normalized, compound 1 as 200%, LPS (10 ng/mL) as 100%) was 200.00%, the “enhancement of NF-κB activity by LPS at 12 h (confirmatory kinetic screening)” value (NF-κB [4]; in presence of LPS, 12 h incubation) was “most potent” and the RNA seq (THP-1 cells [5]) was “Induction of CSF-1 and LIF”. For the same compound, the “cytokine production (mIL-12, mIL-6, mTNFalpha) induced by Dectin1” value (BMDCs [6]; listed as 42) was “not enhanced; also recorded: not by Dectin1”, the “cytokine production (mIL-12, mIL-6, mTNFalpha) induced by Dectin1” value (BMDCs [6]; listed as #42) was “not by Dectin1” and the “cytokine production induced by TLR ligands” value (BMDCs [6]; with a TLR ligand (FIGS. 3-4)) was “enhanced”. For the same compound, the “co-stimulatory molecule expression induced by LPS” value (BMDCs [7]; BDMCs, LPS (FIGS. 5A-5G)) was “enhances”, the “co-stimulatory molecule expression induced by MPLA” value (BMDCs [7]; BDMCs, MPLA (FIGS. 6A-6F)) was “enhances” and the “Co-stimulatory markers: CD40 and CD86 induce by LPS or MPLA” value (BMDCs [7]; listed as 42) was “enhanced”. The “Co-stimulatory markers: CD40 and CD86 induce by LPS or MPLA” value (BMDCs [7]; listed as #42) was “enhanced; also recorded: Enhancement of CD40 and CD86”, the reactogenicity (Reactogenicity (FIG. 21)) was “not reactogenic” and the “Gene expression: CD40, IL-12. CXCL5 expression” value (BMDCs [8]; BMDCs) was “Enhancement of CD40, IL-12”. For the same compound, the “CD40, CXCL10 and IL-12 gene expression kinetics” value (BMDCs [8]; by 10 hours after exposure, BDMCs, LPS and compound 42 (FIG. 7)) was “upregulated”, the “MTT Compound alone % Viability” value (THP-1 cells [9]) was 102.81% and the “phosphorylation of NFkB, combination of LPS and compound” value (NF-kB; LPS + compound 42) was “synergistic”. For the same compound, the “NF-kB phosphorylation and nuclear localization induced by LPS (ICC and WB)” value (NF-kB; THP-1 cells, with LPS, listed as #42) was “prolonged; also recorded: Prolongation of NF-kB” and the “phosphorylation of NF-kB by compound alone” value (NF-kB; compound 42 alone (FIGS. 9A-9C)) was “induced and sustained”.
